Assay [1] has as its system P. viticola. Also noted: species or system Plasmopara viticola.
Assay [2] concerns Plasmopara viticola. The assay is described as follows: In vitro zoospore germination and activity, MIC(100%). It counts as cell-based. Particulars: for Minimal inhibitory concentration (MIC(100%)) Plasmopara viticola: zoospore germination and activity, in vitro; for MIC: Plasmopara viticola, read-out: Minimal inhibitory concentration (MIC(100%)) Plasmopara viticola.
For assay [3], the system named is Phytophthora infestans. Format: cell-based. As to conditions: germination, in vitro.
In assay [4] the test system is Plasmopara viticola. The experiment in a line: Preliminary screening of crude extracts and compounds (Table 3).
Where [5] appears, read: 0.147% mass/volume, Isopropanol.

In brackets after ≈: the same amount, converted by molar mass. Several values for one entry are separate records, joined by “and”; a condition that tells them apart may be missing. Identical values can stand only once. Like-named read-outs stand apart in the source and are kept apart here.

Turning to `C=C[C@@](C)(O)CC[C@H]1C(=C)C[C@H](O)[C@H]2C(C)(C)CCC[C@]12C` [Compound 1, larixol], the “Efficacy (%)” value in assay [1] (0.0147% mass/volume, Isopropanol) turned out to be 36.3%; in assay [1] (0.025% mass/volume, Ethanol), 91.2%; in assay [1] (0.074% mass/volume, Isopropanol), 100.0%; in assay [1] (0.1% mass/volume, Ethanol), 98.8%; in assay [1] (setting [5]), 99.5%. Moreover, the “Minimal inhibitory concentration (MIC(100%)) Plasmopara viticola” value in assay [2] is on record as 16 ppm. In addition, the “Minimal inhibitory concentration (MIC(100%)) Phytophthora infestans” value in assay [3] came out at 500 ppm. Moreover, the results for the Activity in assay [4] (sample 0.0147% mass/volume), in assay [4] (sample 0.074% mass/volume) and in assay [4] (sample 0.147% mass/volume) were 36.3%, 100% and 99.5%, respectively.

For the compound `COc1cc(C[C@H]2CO[C@H](c3ccc(O)c(OC)c3)[C@H]2COC(C)=O)ccc1O` [Compound 4, (+)-lariciresinol acetate], the MIC in assay [2] worked out at 125 µg/mL. In addition, the “Minimal inhibitory concentration (MIC(100%)) Phytophthora infestans” value in assay [3] is reported as “No actvity”. The Activity in assay [4] (sample 0.008% mass/volume) was found to be 13.1%; in assay [4] (sample 0.036% mass/volume) it was 78.8%; in assay [4] (sample 0.08% mass/volume), 92.4%.

For `C=CC(C)(O)CCC1C(=C)CC(OC(C)=O)C2C(C)(C)CCCC12C` (stereo not drawn) [Compound 2, larixyl acetate], the “Efficacy (%)” value is 24.5% in assay [1] (0.01% mass/volume, Isopropanol); 69.2% in assay [1] (0.012% mass/volume, Ethanol); 83.3% in assay [1] (0.025% mass/volume, Ethanol); 98.4% in assay [1] (0.05% mass/volume, Ethanol); 99.9% and 99.4% in assay [1] (0.1% mass/volume, Ethanol); 100.0% in assay [1] (0.12% mass/volume, Ethanol). Moreover, in assay [1] (setting [5]), the “Efficacy (%)” value was determined as 99.5%. Further, the “Minimal inhibitory concentration (MIC(100%)) Plasmopara viticola” value in assay [2] is given as 4 ppm. Moreover, the “Minimal inhibitory concentration (MIC(100%)) Phytophthora infestans” value in assay [3] was 125 ppm. The Activity in assay [4] (sample 0.012% mass/volume) amounted to 69.2%; in assay [4] (sample 0.12% mass/volume), 100%.

Consider `COc1cc(C[C@H]2CO[C@H](c3ccc(O)c(OC)c3)[C@H]2CO)ccc1O` [Compound 3, (+)-lariciresinol], for which the MIC in assay [2] amounted to 250 µg/mL (≈ 694 µM). Besides, the “Minimal inhibitory concentration (MIC(100%)) Phytophthora infestans” value in assay [3] is recorded as “No activity”. In addition, the Activity in assay [4] (sample 0.01% mass/volume) is on record as 14.4%; in assay [4] (sample 0.1% mass/volume) it was 94.1%.

(Values after patent US10039288B2, “Pathogenic infections” (University of Surrey, priority 2015, dated 2018).)
